{"source": "patent US4338451A", "about": "“5-Hydroxymethyl oxazolidinones” (Delalande S.A., priority 1977, dated 1982)", "key": {"[1]": {"system": "generalized trembling caused by an interperitoneal injection (200 mg/kg) of dl-5-hydroxytryptophane", "assay": "Test A: potentiation in mice of generalized trembling caused by dl-5-hydroxytryptophane", "assay_type": "in vivo", "conditions": "Mus musculus, po, dl-5-hydroxytryptophane 200 mg/kg intraperitoneal, read-out: Test A ED 50", "method": "Potentiation in mice of generalized trembling caused by an interperitoneal injection (200 mg/kg) of dl-5-hydroxytryptophane, following the protocol described by C. GOURET and G. RAYNAUD in J. Pharmacol. (Paris), (1974) 5, 231."}, "[2]": {"system": "ptosis observed one hour after an intravenous injection (2 mg/kg) of reserpine", "assay": "Test B: antagonism of the ptosis caused by reserpine in mice", "assay_type": "in vivo", "conditions": "Mus musculus, po, 1 h, p.o., reserpine 2 mg/kg intravenous, read-out: Test B ED 50", "method": "Antagonism with respect to the ptosis observed one hour after an intravenous injection (2 mg/kg) of reserpine given to mice, following the protocol described by C."}, "[3]": {"assay": "Acute toxicity in mice", "conditions": "mouse, in vivo, po, 1000 mg/kg"}, "[4]": {"system": "pontogeniculo-occipital points (P.G.O.) caused by an intravenous injection (0.5 mg/kg) of reserpine", "assay": "Test C: reduction in the density of pontogeniculo-occipital points (P.G.O.) caused by reserpine in cats", "assay_type": "in vivo", "conditions": "Felis catus, ip, reserpine 0.5 mg/kg intravenous, read-out: Test C ED 50", "method": "Reduction in the density of pontogeniculo-occipital points (P.G.O.) caused by an intravenous injection (0.5 mg/kg) of reserpine given to cats, following the protocol described by A. COSTON and C. GOURET in J. Pharmacol. (Paris) (1976), 7, 409."}}}
{"smiles": "N#CCCOc1ccc(N2CC(CO)OC2=O)cc1", "note": "(stereo not shown) [770 131, 3-(2-p-cyanoethoxyphenyl) 5-hydroxymethyl 2-oxazolidinone]", "values": [{"measurement": "ED50", "setting": "[1]", "value": 2.5, "unit": "mg/kg"}, {"measurement": "ED50", "setting": "[2]", "value": 3, "unit": "mg/kg"}, {"measurement": "mortality", "setting": "[3]", "value": 0, "unit": "%"}, {"measurement": "ED50", "setting": "[4]", "value": 5.5, "unit": "mg/kg"}]}
